Assay results taken from patent US7232837B2, “Stereoisomers with high affinity for adrenergic receptors” (McNeil-PPC, Inc., priority 1999, dated 2007).

Key:
Swiss-Webster mice = assay: Locomotor stimulant and depressant effects in mice; settings: i.p.
Description: Male Swiss-Webster mice (HSD ND4, Harlan Sprague Dawley, Houston, Tex.) aged 2–3 months were used in these studies. Each dose group consisted of 8 mice. The mice were housed 2 to 4 per cage in 30.4×22.9×15.2 cm clear polycarbonate cages with food and water available ad libitum for at least one week prior to locomotor activity testing. The colony was maintained at 23±1° C., on a normal light-dark cycle beginning at 0700 hr. All testing took place during the light portion of the light-dark cycle.
Horizontal (forward movement) locomotor activity was measured using a standardized, optical activity monitoring system [Model KXYZCM (16), Omnitech Electronics, Columbus, Ohio]. Activity was monitored in forty 40.5×40.5×30.5 cm clear acrylic chambers that where housed in sets of two within larger sound-attenuating chambers. A panel of 16 infrared beams and corresponding photodetectors were spaced 2 cm apart along the sides and 2.4 cm above the floor of each activity chamber. A 7.5-W incandescent light above each chamber provided dim illumination via a rheostat set to 20% of full scale. Fans provided an 80-dB ambient noise level within the chamber.
Triprolidine HCl was obtained from Research Biochemicals International, (Natick, Mass.).
Locomotor stimulant effects. […] (+)-Amphetamine was used as a positive control. The total horizontal distance traversed (cm) was recorded at 10 minute intervals for a 2-hour session. Separate groups of 8 mice were assigned to each dose or saline group, and dose-effect testing continued for each compound until maximal stimulant or depressant effects could be estimated. A separate control group was tested along with each compound.
Using TableCurve 2D v2.03 (Jandel Scientific), the mean average total distance traversed (cm/10 min) for that period was fit to a 3-parameter logistic peak function of log10 dose (with the constant set to the mean of the saline group), and the maximum effect estimated from the resulting curve. The […] (dose producing ½ maximal stimulant activity) was estimated from a linear regression against log10 dose of the ascending portion of the dose-effect curve. The stimulant efficacy was the peak effect of the compound (cm/10 min) as estimated from the logistic peak function, minus the mean control distance traveled (cm/10 min), and was expressed for each stimulant compound as a ratio to the stimulant efficacy determined for (+)-amphetamine.
The mean average total distance traversed (cm/10 min) for that period were fit to a linear function of log10 dose of the descending portion of the dose-effect curve. […] Efficacy was the ratio of maximal depressant effect to maximum possible depression for each compound (mean average total distance of the control group minus the lowest mean total distance, expressed as a ratio to the control group total distance).
Statistical analysis. Time course data for each compound were considered in 2-way analyses of variance with dose as a between-group and time as a within-group factor. The dose-effect data were considered in 1-way analyses of variance, and planned individual comparisons were conduced between each dose and the saline control group. Interaction studies were considered in 2-way analyses of variance, with Pretreatment and Test dose as the factors.

α2 adrenergic receptors = assay: Alpha-2 binding, 125iodoclonidine, canine brain (frontal cortex) membranes; parameters: species or system canine (mongrel dogs); settings: α2-displacement assay, check for imidazoline receptors
Description: BRAIN ALPHA-2 RECEPTORS: Membranes of mongrel dogs were harvested from the canine frontal cortex and prepared as described for lung except that the final membrane protein concentration was adjusted to 0.5 mg/ml.
ALPHA-2 BINDING ^125IODOCLONIDINE. […] Nonspecific binding was determined in separate incubations in the presence of 10 μM phentolamine. The final concentration of p-iodoclonidine was 44–45 pM in competition studies and between 50 pM and 10 nM in saturation experiments. Bound and free p-^125iodoclonidine were separated and the bound quantified as described above for the ICYP assays. […] BETA-2 BINDING, ^125IODOCYANOPINDOLOL (^125ICYP). […] Nonspecific binding was determined in separate incubations in the presence of 2 μM d,l-propranolol. Each experimental point was determined in triplicate. […] Incubations were terminated as described above for the α1 assays. Filters were placed into polyethylene tubes and the bound ligand was determined by gamma spectrometry (Sano et al., 1993).
All data were analyzed with the aid of microcomputer nonlinear curve fitting programs (PRISM 2.0, Graphpad Software, San Diego Calif.).
The receptors resident in each of the three membrane preparations were evaluated by standard saturation analysis following the addition of increasing concentrations of the appropriate radioligand. […] The radio ligand added for subsequent α2-displacement assays was adjusted to evaluate only the high affinity receptor. Contributions from p-iodoclonidine binding to imidazoline receptors in the α2-displacement assay were evaluated with epinephrine.
The variable, I, is the concentration of tracer added and the variable, Kd, is the equilibrium dissociation constant empirically determined for this receptor population.

CC(N)Cc1ccccc1 (single isomer, unassigned; (+)) [(+)-amphetamine, (+)-Amphetamine]
locomotor stimulant effects, time course (result in words) (Swiss-Webster mice): dose- and time-dependent increase in the distance traversed within 10 minutes following injection

CNC[C@H](O)c1ccc(O)c(O)c1 [Epinephrine]
displacement of bound p-iodoclonidine (α2 adrenergic receptors): easily displaced all bound p-iodoclonidine
